Read-outs that look alike come from different tables or passages of the source.
Tests used:
[1] = tested on: NMDA receptors; assay type: cell-based, chick
Procedure: Potency rating=minimum concentration required to provide total protection against neurotoxic effects of NMDA (40 μM) in chick embryo retinal tissue tests
These experiments were performed using segments of chick embryo retina. This is a widely used model for studying the production and prevention of excitotoxic phenomena, since it is a simple and inexpensive preparation, and since chick tissue provides a better model of adult mammalian neurons than embryonic or juvenile mammalian tissue. All of the glutamate receptors that mediate excitotoxic phenomena are present in chick retinas, and are sensitive to excitotoxic stimulation. By contrast, in embryonic or juvenile mammalian tissue, various glutamate receptors are not fully matured and are not responsive in the same ways that occur in adult mammalian tissue.
In these tests, NMDA is introduced into the incubation medium in a concentration ([…]) sufficient to produce a fully developed excitotoxic lesion within 30 min, displaying acute degeneration and necrosis of the majority of neurons in the inner layers of the retina. The control retinas are incubated with NMDA alone, and experimental retinas are incubated with NMDA plus a test compound that is being evaluated for NMDA antagonist properties. […] All agents that prevent NMDA from hyperactivating NMDA receptors and thereby inducing an excitotoxic neurodegenerative reaction in the chick embryo retina are considered appropriate candidate drugs for preventing NMDA receptor hyperactivation and NMDA receptor burnout in the presymptomatic stages of Alzheimer's disease.
The concentration of the test compound required to prevent NMDA from inducing neuronal degeneration in the chick retina tissue is considered a measure of its expected potency for preventing NMDA receptor hyperactivation and NMDA receptor burnout in the presymptomatic stages of Alzheimer's disease.

[2] = human anesthesia; cited from earlier work
[3] = tested on: cerebrocortical neurons; details: Olney et al 1989, Corso et al 1994; cited from earlier work
[4] = tested on: pyramidal neurons in layers III and IV of the posterior cingulate and retrosplenial (PC/RS) cortices; experiment: In vivo assay of toxic side effects of NMDA antagonists (vacuole formation in PC/RS cortex); details: adult female rats, ip, sacrificed four hours after treatment
[5] = tested on: vacuolated PC/RS neurons; assay type: in vivo, rat; details: NBQX 15 mg/kg ip every 30 minutes, 4 injections, with MK-801 0.5 mg/kg; 4 h; ± SEM
Text: The rats were sacrificed four hours after the treatment began, and brain tissue from the PC/RS region was histologically evaluated, by previously described methods (Olney et al 1991) using double-blinded techniques. The number of vacuolated PC/RS neurons were counted on each side of the brain at a rostrocaudal level immediately posterior to where the corpus callosum ceases decussating across the midline (approximately 5.6 mm caudal to Bregma; see Paxinos & Watson, The Rat Brain in Stereotaxic Coordinates, 2nd ed., 1986).

[6] = tested on: vacuolated PC/RS neurons; assay type: in vivo, rat; details: MK-801 ip
Procedure: To try to avoid that problem, a subsequent set of tests was carried out in which NBQX was microinjected directly into the PC/RS cortex, at one of two doses, either 0.025 or 0.25 nmols.

[7] = tested on: neurons in neocortical and limbic brain regions; experiment: Histopathology of rat brain after PCP/pilocarpine treatment; assay type: in vivo; details: PCP 50 mg/kg i.p. combined with pilocarpine 10 mg/kg i.p.
Procedure: Adult female rats were injected subcutaneously with an NMDA antagonist drug, phencyclidine (PCP), at 50 milligrams of drug per kilogram of body weight (mg/kg sc), accompanied by a small dose of a muscarinic agonist, pilocarpine (10 mg/kg sc). At various times (4, 16, 24, 48, 72 and 96 hours) after treatment, the rats were anesthetized and perfused with fixative to allow their brains to be prepared for histological evaluation.
Degenerating neurons in various brain regions were also examined by electron microscopy, to obtain evidence for loss of synaptic complexes, and a computer-assisted cell plotting system was used to plot the location and count the frequency with which degenerating neurons were found in each brain region.
Massive loss of neurons throughout many neocortical and limbic brain regions is a hallmark characteristic of Alzheimer's disease. To establish that the NR/hypo mechanism results not only in cell injury but in cell death, the Applicants systematically examined the brains of rats 4 days following PCP/pilocarpine treatment. Sections prepared at 1 millimeter intervals from one side of the brain were stained, using hematoxylin and eosin; sections prepared at 1 millimeter intervals from the other side of the brain were stained using a silver impregnation stain. […]

[8] = tested on: neurons in rat brain; experiment: PCP alone (minipump infusion or single high dose), brain damage in rats; assay type: in vivo
Text: Initially, the Applicants found it difficult to perform a detailed analysis of the full pattern and type of damage that can be induced in the adult rat brain by treatment with an NMDA antagonist because of technical problems that had to be overcome. Therefore, the Applicants tried several approaches. For example, it had been claimed (Ellison 1994) that when PCP is infused continuously in adult rats for five days, by a subcutaneously implanted minipump, it causes injury to nerve cells in several brain regions.
However, they found (Corso et al 1994) that even when a near lethal dose (50-80 mg/kg sc) was administered, a fully developed widespread pattern of damage could only be induced in a very small percentage of treated animals.

CNC1(c2ccccc2Cl)CCCCC1=O (centres unmarked) [Ketamine]
POTENCY RATING = minimum concentration required to provide total protection against neurotoxic effects of NMDA [1]: 10 µM
duration of action [2]: about 15 minutes
pathological changes in cerebral cortex / corticolimbic regions of adult rats [3]: cause pathological changes in the cerebral cortex of adult rats

NS(=O)(=O)c1cccc2c1c([N+](=O)[O-])cc1nc(O)c(O)nc12 [NBQX]
POTENCY RATING = minimum concentration required to provide total protection against neurotoxic effects of NMDA ([1]; NMDA 40 μM, chick embryo retinal tissue): 100 µM
neurotoxic (vacuole) reaction in PC/RS cortex, drug by itself [4]: did not cause vacuoles
vacuolated neurons in PC/RS cortex, MK-801 plus NBQX [5]: 52±22.4 vacuolated neurons per microscopic section
reduction of vacuoles, protected (ipsilateral) side, lower dosage ([6]; NBQX 0.025 nmols microinjected into PC/RS cortex): about 20%
reduction of vacuoles, protected (ipsilateral) side, higher dosage ([6]; NBQX 0.25 nmols microinjected into PC/RS cortex): about 80%

c1ccc(C2(N3CCCCC3)CCCCC2)cc1 [Phencyclidine]
POTENCY RATING = minimum concentration required to provide total protection against neurotoxic effects of NMDA [1]: 1 µM
NR/hypo-induced brain damage, PCP combined with pilocarpine [7]: reliably and consistently produced severe levels of NR/hypo-induced damage
rats with a full pattern of damage out of 40 rats treated ([8]; PCP 50 mg/kg i.p., single dose): 1
neuronal damage after continuous infusion by subcutaneous minipump ([8]; adult rats, five days, same dose as Ellison 1994): produced no neuronal damage at all
near lethal dose ([8]; rats): 50-80 mg/kg sc
pathological changes in cerebral cortex / corticolimbic regions of adult rats [3]: produce pathological changes in various corticolimbic regions of the adult rat brain

From patent US6391871B1 (priority 1996, dated 2002)
